Laboratory results: US20200384135A1, “CANCER IMAGING WITH THERAPY: THERANOSTICS” (Virginia Commonwealth University, priority 2010, published 2020)

How the values were obtained:
Format in all cases: in vivo, mice
PC3-ML-Luc metastases [1] = assay: NaF-PET/CT, intra-cardiac PC3-ML-Luc metastasis model; settings: PCa-3
Procedure: (§1) FIGS. 17A-E. AEG-Prom-based SPECT/CT imaging detects distant metastasis not identified by NaF- or FDG-PET/CT. The experimental metastases model, PCa-3 (n=5), was developed by intra-cardiac injection of 5×10^4 PC3-ML-Luc cells, SPECT/CT images for PCa-3 and a representative healthy control Ctrl-1 were obtained at 18-20 h after [^125I]FIAU injection, which was 66-68 h after IV administration of pAEG-HSV1tk-PEI polyplex. (17A, 17B) NaF-PET/CT, AEG-Prom SPECT/CT and FDG-PET imaging in Ctrl-1 (17A) and the PC3-ML-Luc model. PCa-3 (17B). (17D, 17E) Gross pathology of the metastatic nodules that were located on the basis of the SPECT/CT images. ([…]) Ex vivo BLI of the dissected organs, imaged within 20 min of euthanasia. […] A possible L1 lesion was detected by FDG/PET (17B). […]
(§2) Cloning of plasmid constructs. pPEG-Luc and pAEG-Luc were generated as described previously (3, 28). […] Luminescence was normalized for transfection efficiency by co-transfection with a vector expressing renilla luciferase, pGL4.74[hRluc/TK] […] After 48 h of transfection, the expression level of the Luc reporter was measured by the Dual Luciferase Reporter Assay kit (Promega). Luminescence was normalized for cell number (by μg total protein) using the BCA Protein Assay Kit (Pierce Biotechnology, Rockford, Ill.). […]

PC3-ML-Luc metastases [2] = assay: FDG-PET/CT, intra-cardiac PC3-ML-Luc metastasis model; settings: PCa-3, same mouse
Procedure: as §1, §2

[3] = tested on: breast cancer metastasis model, BCa-1; assay: Cross-comparison of PEG-Prom-mediated SPECT imaging and FDG-PET; settings: BCa-1, PET acquired same day as SPECT
Procedure: FIGS. 7A-7D. Detection and localization of metastatic masses of melanoma after the systemic administration of pPEG-HSV1 tk by SPECT-CT imaging. Transverse, coronal and sagittal views of co-registered SPECT-CT images of Mel-2 (7A) and Mel-3 (7B, 7C and 7D) from FIG. 6C. All images were obtained at 24 h after [^125I]FIAU injection, which was 70 h after the IV administration of pPEG-HSV1 tk/PEI polyplex. Gross anatomical details of the metastatic masses that were located based on the SPECT-CT images in 7A, 7B, 7C and 7D. Multiple metastatic sites were detected by SPECT-CT imaging in Mel-2 (7A, dotted circle). […] (7B) Accumulated radioactivity was detected adjacent to the thoracic mid-spine toward the left side (white arrow), which corresponded to a tumor mass at this location. […] Melanoma was uncovered immediately above the diaphragm (f, white dotted circle) and in the left inguinal lymph node, correlating with 7C and 7D. Cross-comparison of the PEG-Prom-mediated imaging and FDG-PET in abreast cancer metastasis model, BCa-1. Two nodules (Tu-1 and -2) were detected by [^125I]FIAU-SPECT near the heart and were confirmed by necropsy. […] SPECT images were acquired 48 h post-injection of [^125I]FIAU, which was 94 h after the pPEG-HSV1 tk/PEI delivery. The PET images were acquired on the same day as the SPECT data. […]

SMILES | Detection of metastatic lesions by NaF-PET/CT (PC3-ML-Luc metastases [1]) | Detection of metastatic lesions by FDG-PET/CT (PC3-ML-Luc metastases [2]) | Detection of nodule Tu-2 (smaller nodule attached to the heart) [3]
[18F-].[Na+] [NaF, [^18F]NaF] | failed to identify the metastases within tibia and axial skeleton |  | 
OC[C@H]1OC(O)[C@H]([18F])[C@@H](O)[C@@H]1O (stereo partly drawn) [FDG, [^18F]fluorodeoxyglucose] |  | only able to identify a lesion in the left shoulder | not obvious in the PET image
